# What was measured:
# [1] = test system: Streptococcus faecalis 5432; assay: serial dilution liquid medium MIC, Streptococcus faecalis 5432; type: cell-based; conditions: Enterococcus faecalis, 24 hours at 37° C., read-out: minimum inhibiting concentration (MIC)
# Protocol: (§1) The method was a serial dilution of liquid medium test wherein a series of tubes were prepared containing the same amount of sterile nutritive medium and increasing amounts of the test product was distributed in each tube. The tubes were then seeded with a bacterial strain and incubated for 24 hours in an oven at 37° C. The degree of inhibition was determined by transillumination to determine the minimum inhibiting concentration (MIC) express in μg/ml and the results are reported in the following Tables.
# [2] = test system: Staphylococcus aureus exp. n° 54 146; assay: serial dilution liquid medium MIC, Staphylococcus aureus exp. n° 54 146; type: cell-based; conditions: Staphylococcus aureus exp. 54 146; 24 hours at 37° C.; read-out: minimum inhibiting concentration (MIC)
# Protocol: as §1
# [3] = test system: Staphylococcus aureus No. 54,146; assay: In vivo activity in mice experimentally infected with Staphylococcus aureus No. 54,146; conditions: groups of 10 mice
# Protocol: The test was effected with the compounds of the invention and erythromycin as a reference on groups of 10 mice weighing about 21 g experimentally infected with Staphylococcus aureus No. 54,146 by intraperitoneal administration of 0.5 ml of a 22 hour culture of the said organism in bouillon with a pH of 7 diluted to 1/6 with physiological water. The test compounds were orally administrated to the mice 1,5 and 24 hours after the infection and the mortality on the 8th day was determined.
# [4] = test system: Streptococcus faecalis 5435; assay: serial dilution liquid medium MIC, Streptococcus faecalis 5435; type: cell-based; conditions: Enterococcus faecalis, 24 hours at 37° C., read-out: minimum inhibiting concentration (MIC)
# Protocol: as §1
# [5] = test system: Staphylococcus aureus 1061; assay: serial dilution liquid medium MIC, Staphylococcus aureus 1061 pen-sensibles; type: cell-based; conditions: 24 hours at 37° C., read-out: minimum inhibiting concentration (MIC)
# Protocol: as §1
# [6] = test system: Streptococcus pyogenes A 561; assay: serial dilution liquid medium MIC, Streptococcus pyogenes A 561; type: cell-based; conditions: A561, 24 hours at 37° C., read-out: minimum inhibiting concentration (MIC)
# Protocol: as §1
# [7] = test system: Staphylococcus aureus UC 1128; assay: serial dilution liquid medium MIC, Staphylococcus aureus UC 1128 pen-resistant; type: cell-based; conditions: UC1128; Staphylococcus aureus UC 1128 pen-resistant; 24 hours at 37° C.; read-out: minimum inhibiting concentration (MIC)
# Protocol: as §1
# [8] = test system: Streptococcus faecalis 99 F 74; assay: serial dilution liquid medium MIC, Streptococcus faecalis 99 F 74; type: cell-based; conditions: Enterococcus faecalis, 99F74, 24 hours at 37° C., read-out: minimum inhibiting concentration (MIC)
# Protocol: as §1
# [9] = dose 0,5mg oral, 1,5 and 24 hours after infection
# [10] = dose 0,25mg oral, 1,5 and 24 hours after infection
# [11] = dose 0,75mg oral, 1,5 and 24 hours after infection
MIC [1],MIC [2],MIC [4],MIC [5],MIC [6],MIC [7],MIC [8],Compound,"No. of mice living on the 8th day [3, 9]","No. of mice living on the 8th day [3, 10]","No. of mice living on the 8th day [3, 11]"
0.1 µg/mL,0.5 µg/mL,0.5 µg/mL,0.2 µg/mL,≤ 0.01 µg/mL,0.5 µg/mL,0.1 µg/mL,"CC[C@H]1OC(=O)[C@H](C)[C@@H](O[C@H]2C[C@@](C)(OC)[C@@H](O)[C@H](C)O2)[C@H](C)[C@@H](O[C@@H]2O[C@H](C)C[C@H](N(C)C)[C@H]2O)[C@](C)(O)C[C@@H](C)C(=NOC(C)CN(C)C)[C@H](C)[C@@H](O)[C@]1(C)O (stereo partly shown) [Example 36, 9-[O-(2-dimethylamino-1-methyl-ethyl)-oxime] of erythromycin]",9 mice,3 mice,10 mice
0.1 µg/mL,0.6 µg/mL,0.6 µg/mL,0.6 µg/mL,0.1 µg/mL,1 µg/mL,0.2 µg/mL,"CC[C@H]1OC(=O)[C@H](C)[C@@H](O[C@H]2C[C@@](C)(OC)[C@@H](O)[C@H](C)O2)[C@H](C)[C@@H](O[C@@H]2O[C@H](C)C[C@H](N(C)C)[C@H]2O)[C@](C)(O)C[C@@H](C)C(=NOCC(=O)C(C)(C)C)[C@H](C)[C@@H](O)[C@]1(C)O [Example 15, 9-[0-(3,3-dimethyl-2-oxo-butyl)-oxime] of erythromycin]",9 mice,1 mice,10 mice
0.1 µg/mL,0.4 µg/mL,0.2 µg/mL,0.4 µg/mL,0.1 µg/mL,0.6 µg/mL,0.1 µg/mL,"CCOCON=C1[C@H](C)C[C@@](C)(O)[C@H](O[C@@H]2O[C@H](C)C[C@H](N(C)C)[C@H]2O)[C@@H](C)[C@H](O[C@H]2C[C@@](C)(OC)[C@@H](O)[C@H](C)O2)[C@@H](C)C(=O)O[C@H](CC)[C@@](C)(O)[C@H](O)[C@H]1C [Example 20, 9-[0-(ethoxymethyl)-oxime] of erythromycin]",4 mice,2 mice,10 mice
0.4 µg/mL,0.4 µg/mL,2 µg/mL,0.4 µg/mL,0.05 µg/mL,0.6 µg/mL,0.2 µg/mL,"CC[C@H]1OC(=O)[C@H](C)[C@@H](O[C@H]2C[C@@](C)(OC)[C@@H](O)[C@H](C)O2)[C@H](C)[C@@H](O[C@@H]2O[C@H](C)C[C@H](N(C)C)[C@H]2O)[C@](C)(O)C[C@@H](C)C(=NOCC2OCCO2)[C@H](C)[C@@H](O)[C@]1(C)O [Example 30, 9-[0-{(1,3-dioxolan-2-yl)-methyl}-oxime] of erythromycin]",7 mice,2 mice,10 mice
0.1 µg/mL,0.2 µg/mL,0.2 µg/mL,0.1 µg/mL,0.02 µg/mL,0.4 µg/mL,0.1 µg/mL,"CC[C@H]1OC(=O)[C@H](C)[C@@H](O[C@H]2C[C@@](C)(OC)[C@@H](O)[C@H](C)O2)[C@H](C)[C@@H](O[C@@H]2O[C@H](C)C[C@H](N(C)C)[C@H]2O)[C@](C)(O)C[C@@H](C)C(=NOCOC)[C@H](C)[C@@H](O)[C@]1(C)O [Example 33, 9-[O-(methoxymethyl)-oxime] of erythromycin]",10 mice,7 mice,
0.2 µg/mL,0.4 µg/mL,1 µg/mL,0.4 µg/mL,0.05 µg/mL,0.6 µg/mL,0.1 µg/mL,"CCSCC(O)CON=C1[C@H](C)C[C@@](C)(O)[C@H](O[C@@H]2O[C@H](C)C[C@H](N(C)C)[C@H]2O)[C@@H](C)[C@H](O[C@H]2C[C@@](C)(OC)[C@@H](O)[C@H](C)O2)[C@@H](C)C(=O)O[C@H](CC)[C@@](C)(O)[C@H](O)[C@H]1C (stereo partly shown) [Example 16, 9-[0-(3-ethylthio-2-hydroxy-propyl)-oxime] of erythromycin]",,,
0.05 µg/mL,0.4 µg/mL,0.2 µg/mL,0.1 µg/mL,≤ 0.01 µg/mL,0.4 µg/mL,0.1 µg/mL,"CC[C@H]1OC(=O)[C@H](C)[C@@H](O[C@H]2C[C@@](C)(OC)[C@@H](O)[C@H](C)O2)[C@H](C)[C@@H](O[C@@H]2O[C@H](C)C[C@H](N(C)C)[C@H]2O)[C@](C)(O)C[C@@H](C)C(=NOCOCCN)[C@H](C)[C@@H](O)[C@]1(C)O [Example 24, 9-[0-{(2-aminoethoxy}-methyl)-oxime] of erythromycin]",,,
0.05 µg/mL,0.4 µg/mL,0.1 µg/mL,0.2 µg/mL,≤ 0.01 µg/mL,0.6 µg/mL,0.05 µg/mL,"CC[C@H]1OC(=O)[C@H](C)[C@@H](O[C@H]2C[C@@](C)(OC)[C@@H](O)[C@H](C)O2)[C@H](C)[C@@H](O[C@@H]2O[C@H](C)C[C@H](N(C)C)[C@H]2O)[C@](C)(O)C[C@@H](C)C(=NOC(C)CN(CC)CC)[C@H](C)[C@@H](O)[C@]1(C)O (stereo partly shown) [Example 46, 9-[O-(2-diethylamino-isopropyl)-oxime] of erythromycin]",,,
0.1 µg/mL,0.4 µg/mL,0.6 µg/mL,0.4 µg/mL,0.05 µg/mL,0.6 µg/mL,0.1 µg/mL,"CC[C@H]1OC(=O)[C@H](C)[C@@H](O[C@H]2C[C@@](C)(OC)[C@@H](O)[C@H](C)O2)[C@H](C)[C@@H](O[C@@H]2O[C@H](C)C[C@H](N(C)C)[C@H]2O)[C@](C)(O)C[C@@H](C)C(=NOCCOCCO)[C@H](C)[C@@H](O)[C@]1(C)O [Example 17, 9-[0-(2-{2-hydroxyethoxy}-ethyl)-oxime] of erythromycin]",,,
0.05 µg/mL,0.5 µg/mL,0.2 µg/mL,0.5 µg/mL,≤ 0.01 µg/mL,0.5 µg/mL,0.05 µg/mL,"CC[C@H]1OC(=O)[C@H](C)[C@@H](O[C@H]2C[C@@](C)(OC)[C@@H](O)[C@H](C)O2)[C@H](C)[C@@H](O[C@@H]2O[C@H](C)C[C@H](N(C)C)[C@H]2O)[C@](C)(O)C[C@@H](C)C(=NOCOCCNC)[C@H](C)[C@@H](O)[C@]1(C)O [Example 25, 9-[0-{(2-methylamino-ethoxy}-methyl)-oxime] of erythromycin]",,,
0.2 µg/mL,1 µg/mL,0.4 µg/mL,1 µg/mL,≤ 0.01 µg/mL,2 µg/mL,0.05 µg/mL,"CC[C@H]1OC(=O)[C@H](C)[C@@H](O[C@H]2C[C@@](C)(OC)[C@@H](O)[C@H](C)O2)[C@H](C)[C@@H](O[C@@H]2O[C@H](C)C[C@H](N(C)C)[C@H]2O)[C@](C)(O)C[C@@H](C)C(=NOCCN2CCN(C)CC2)[C@H](C)[C@@H](O)[C@]1(C)O [Example 43, 9-[O-(2-{4-methyl-piperazino-1-yl}-ethyl)-oxime] of erythromycin]",,,
0.1 µg/mL,0.6 µg/mL,0.2 µg/mL,0.4 µg/mL,≤ 0.01 µg/mL,0.6 µg/mL,0.05 µg/mL,"CC[C@H]1OC(=O)[C@H](C)[C@@H](O[C@H]2C[C@@](C)(OC)[C@@H](O)[C@H](C)O2)[C@H](C)[C@@H](O[C@@H]2O[C@H](C)C[C@H](N(C)C)[C@H]2O)[C@](C)(O)C[C@@H](C)C(=NOCCN2CCCCC2)[C@H](C)[C@@H](O)[C@]1(C)O [Example 34, 9-[O-(2{-piperidin-1-yl}-ethyl)-oxime] of erythromycin]",,,
0.2 µg/mL,0.6 µg/mL,1 µg/mL,0.6 µg/mL,0.1 µg/mL,0.1 µg/mL,0.2 µg/mL,"CC[C@H]1OC(=O)[C@H](C)[C@@H](O[C@H]2C[C@@](C)(OC)[C@@H](O)[C@H](C)O2)[C@H](C)[C@@H](O[C@@H]2O[C@H](C)C[C@H](N(C)C)[C@H]2O)[C@](C)(O)C[C@@H](C)C(=NOCOCCN2CCOCC2)[C@H](C)[C@@H](O)[C@]1(C)O [Example 26, 9-[0-{(2-(morpholin-4-yl)-ethoxy}-methyl)-oxime] of erythromycin]",,,
0.2 µg/mL,0.6 µg/mL,0.4 µg/mL,0.4 µg/mL,0.05 µg/mL,0.6 µg/mL,0.2 µg/mL,"CC[C@H]1OC(=O)[C@H](C)[C@@H](O[C@H]2C[C@@](C)(OC)[C@@H](O)[C@H](C)O2)[C@H](C)[C@@H](O[C@@H]2O[C@H](C)C[C@H](N(C)C)[C@H]2O)[C@](C)(O)C[C@@H](C)C(=NOCSc2ccccc2)[C@H](C)[C@@H](O)[C@]1(C)O [Example 28, 9-[0-(phenylthiomethyl)-oxime] of erythromycin]",,,

# — US4349545A, “Novel erythromycin a derivatives” (Roussel Uclaf, priority 1980, dated 1982)
